# Measurements taken from publication PMC12392461, “Beyond Estrogenicity: A Comparative Assessment of Bisphenol A and Its Alternatives in In Vitro Assays Questions Safety of Replacements” (Environmental Science & Technology, 2025).
# Where two headings read alike, the source gives them in different places.
# Columns and labels:
# H4IIe (AhR CALUX) = details: for IC10, linear: linear model fit; for IC10, H4IIe, AhR: H4IIe (AhR assay cells); for Toxic ratio (TR) TRAhR: against baseline cytotoxicity
# Experimental: (§1) Cell culture conditions and bioassay protocols including response detection are provided in Text S2.1–2.4 and Table S3. − Cell viability was determined from cell confluency using an IncuCyte S3 Live-Cell Analysis System (Sartorius AG, Essen, Germany) before and after exposure, except for SH-SY5Y cells (live–dead staining with Nuclear Green LcS1 and propidium iodide, Abcam, UK). For metabolic activation experiments, cell viability was assessed using the ToxBLAzer DualScreen Kit (Thermo Fisher Scientific) to capture the remaining toxicity in ERα-UAS-bla GripTite after treatment with the aCYP catalyst (details in Text S2.4).
# (§2) For ARE, the concentration that triggered an induction ratio of 1.5 (ECIR1.5) was used as the benchmark value, as detailed in Text S2.5. IC10 values also served as a threshold for data analysis in all assays; only concentrations below IC10 were considered when deriving EC10 or ECIR1.5.
# (§3) We measured the cytotoxicity of BPA and its alternatives in HEK293H (PPARγ), HEK293T (ERα), H4IIe (AhR CALUX), MCF7 (ARE/MMP), and differentiated SH-SY5Y cells (Table S6). […]
# (§4) S2.2: Cell Seeding and Incubation. For all bioassays, cell suspensions in the respective assay medium were dispensed into each well of 384-well plates using a MultiFlo Dispenser (Biotek, (now Agilent), Winooski, VT, U.S.). After seeding, the plates were incubated at 37° C and 5% CO₂ for […]. The final cell densities and plate types were as follows: Black poly-D-lysine […]
# (§5) 6500 cells/well, ERα: 5000 cells/well. White 384-well plates with a clear bottom (Product No.
# (§6) NYC, U.S.) for AhR: 3250 cells/well. Black Collagen I coated plates were used (Product No.
# (§7) S2.3: Chemical Dosing and Assay Analysis Procedures. The dosing procedure and high-throughput assay workflow have been described in detail before. 9 The dosing concentrations […]
# (§8) Stock solutions were then either added directly to the respective cell culture medium or evaporated under nitrogen, followed by replenishment with fresh medium. The final solvent content in each well was kept below 1% for methanol, 0% for acetonitrile.
# (§9) Dosing plates were prepared as 11 -step serial dilutions using a Hamilton Microlab Star robotic system (Hamilton, Bonaduz, Switzerland), and chemicals were dosed in duplicates by transferring 10 μL twice from the dosing plates to the cell plates . After quantifying cell confluency as described in S2. 4., the exposed cells were incubated at 37° C and 5% CO₂ for an additional 24 h. All chemicals were tested in all assays with at least three independent […]
# (§10) S2.4: Cell Viability Measurement s and bioanalytical protocols . The confluency as a measure of cell viability was determined with an IncuCyte S3 Live -Cell Analysis System (Sartorius AG, Essen, Germany). With this method the confluency of cells in a microscopy image are normalized to control wells without cells and compared before and after 24 hours of exposure.
# (§11) This method has been described previously 13. […]
# HEK293H (PPARγ) = details: for IC10, linear transformed / logIC10 / IC10, linear: PPARγ bioassay cytotoxicity, dosing range all; for logIC10: log-logistic model; for IC10, HEK293, PPARγ: cytotoxicity, HEK293 (PPARγ assay cells); for IC10, linear: linear model
# Experimental: as §1, §2, §3, §4, §5, §6, §7, §8, §9, §10, §11
# HEK293T (ERα) = details: for IC10, HEK293, ERα: HEK293 (ERα assay cells)
# Experimental: as §1, §2, §3, §4, §5, §6, §7, §8, §9, §10, §11
# MCF7 (ARE/MMP) = details: for IC10, linear transformed / IC10, linear / logIC10: dosing range all; for IC10, MCF7, ARE: MCF7, ARE readout; for IC10, MCF7, MMP: MCF7, MMP readout
# Experimental: as §1, §2, §3, §4, §5, §6, §7, §8, §9, §10, §11
# [1] = target: T1, Peroxisome proliferator-activated receptor γ (Homo sapiens, UniProt P37231); assay: cell-based; details: for EC10, linear: linear model; for logEC10: log-logistic model
# T1 sequence (P37231 238-505 limits assumed): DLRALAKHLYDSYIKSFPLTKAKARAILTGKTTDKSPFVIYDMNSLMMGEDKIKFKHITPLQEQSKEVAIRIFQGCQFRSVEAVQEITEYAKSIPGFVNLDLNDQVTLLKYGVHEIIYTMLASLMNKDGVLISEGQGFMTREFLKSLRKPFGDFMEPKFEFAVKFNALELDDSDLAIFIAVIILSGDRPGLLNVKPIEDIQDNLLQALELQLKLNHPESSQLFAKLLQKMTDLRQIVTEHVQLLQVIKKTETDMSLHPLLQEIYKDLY
# From the text: All bioassay media components and the ERα-UAS-bla GripTite and PPARγ-UAS-bla cells were obtained from Thermo Fisher Scientific (Waltham, MA, USA). AREc32 reporter gene cells based on MCF7 were provided by C. Roland Wolf (Cancer Research UK); AhR CALUX cells (H4L7.5c2 derived from H4IIe) were provided by Michael Denison (UC Davis, USA); and SH-SY5Y cells were purchased from Sigma-Aldrich.
# as §1, §2
# The maximum efficacy (Emax%) refers to the maximum of the log–logistic concentration–response curve attained by test chemicals compared to the reference chemical’s maximum and was obtained for both ERα and PPARγ. […]
# S2: Cell culture and bioassays
# S2.1: Cell Culturing Conditions
# All suppliers and sources are given in detail in SI-Excel S3. The bioassay media for the different assays were prepared as follows: Assay medium for ER alpha-UAS-bla GripTite (ERα) and […]
# 2% charcoal-stripped FBS, and 100 U/mL penicillin-streptomycin. […]
# as §4
# 6500 cells/well, ERα: 5000 cells/well. White 384-well plates with a clear bottom (Product No. […]
# S2.3: Chemical Dosing and Assay Analysis Procedures.
# [2] = Bioassay AhR, cytotoxicity, dosing range all
# [3] = Bioassay AhR, cytotoxicity, dosing range all, log-logistic model fit
# [4] = Bioassay ERα, cytotoxicity, dosing range all
# [5] = Bioassay ERα, cytotoxicity, dosing range all, linear model fit
# [6] = Bioassay ERα, cytotoxicity, dosing range all, log-logistic model fit
# [7] = Bioassay ARE, cytotoxicity, linear model fit
# [8] = Bioassay ARE, cytotoxicity, log-logistic model fit
# [9] = MMP bioassay cytotoxicity, linear model
# [10] = MMP bioassay cytotoxicity, log-logistic model
# [11] = PPARγ bioassay, dosing range all
Structure (SMILES),"IC10, linear transformed (H4IIe (AhR CALUX); [2])","IC10, linear (H4IIe (AhR CALUX); [2])",logIC10 (H4IIe (AhR CALUX); [3]),"IC10, H4IIe, AhR (H4IIe (AhR CALUX); cytotoxicity)","IC10, linear transformed (HEK293H (PPARγ))",logIC10 (HEK293H (PPARγ)),"IC10, HEK293, PPARγ (HEK293H (PPARγ))","IC10, linear transformed (HEK293T (ERα); [4])","IC10, linear (HEK293T (ERα); [5])",logIC10 (HEK293T (ERα); [6]),"IC10, HEK293, ERα (HEK293T (ERα); cytotoxicity)","IC10, linear transformed (MCF7 (ARE/MMP); Bioassay ARE, cytotoxicity)","IC10, linear (MCF7 (ARE/MMP); [7])",logIC10 (MCF7 (ARE/MMP); [8]),"IC10, linear transformed (MCF7 (ARE/MMP); MMP bioassay cytotoxicity)","IC10, linear (MCF7 (ARE/MMP); [9])",logIC10 (MCF7 (ARE/MMP); [10]),"IC10, MCF7, ARE (MCF7 (ARE/MMP); cytotoxicity)","IC10, MCF7, MMP (MCF7 (ARE/MMP); cytotoxicity)","EC10, linear [1, 11]",other results
"Oc1ccc(C2(c3ccc(O)cc3)CCCCC2)cc1 [BPZ, 1,1'-Bis(4-hydroxyphenyl)cyclohexane]",8.38E-05,1.06E-04,-4.08,83.8 µM,4.22E-06,-5.04,9.12 µM,8.13E-06,6.53E-06,-5.18,6.64 µM,7.27E-05,3.45E-05,-4.14,3.28E-05,3.30E-05,-4.48,72.7 µM,32.8 µM,,
"CC(C)(c1ccc(O)c(-c2ccccc2)c1)c1ccc(O)c(-c2ccccc2)c1 [BPPH, 2,2-Bis(2-hydroxy-5-biphenylyl)propane]",1.81E-05,1.29E-05,-4.74,12.9 µM,4.34E-06,-5.16,6.92 µM,5.43E-06,no cytotoxicity,-5.08,8.3 µM,2.86E-06,5.76E-06,-5.54,7.75E-06,5.66E-06,-5.11,2.86 µM,7.75 µM,9.24E-07,"EC10, PPARγ (M) ([1]; 10% of maximum effect of rosiglitazone): 5.55 × 10^–7 M; EC10, linear transformed [1, 11]: 5.55E-07; logEC10 [1, 11]: -6.26; SR-ScorePPARγ ([1]; SR-Score, sigma k=1, x=5): 1.00; Specificity ratio (SRbaseline) SRPPARγ ([1]; against baseline cytotoxicity): 1.90; Specificity ratio (SRcytotoxicity) SRPPARγ ([1]; against experimental cytotoxicity): 12.47; EC10, PPARγ ([1]; effect): 0.555 µM; log(1/EC10) PPARγ ([1]; input of the ToxPi score, values up to 1.00): 0.88; Emax ([1]; read-out: Emax%PPARγ): 12%; Toxic ratio (TR) TRAhR (H4IIe (AhR CALUX)): 0.32; IC10, linear (HEK293H (PPARγ)): 8.25E-06; Toxic ratio (TR) TRPPARγ (HEK293H (PPARγ); against baseline cytotoxicity): 0.15; Toxic ratio (TR) TRERα (HEK293T (ERα); against baseline cytotoxicity): 0.13; Toxic ratio (TR) TRARE (MCF7 (ARE/MMP); against baseline cytotoxicity, ARE readout): 1.43; Toxic ratio (TR) TRMMP (MCF7 (ARE/MMP); against baseline cytotoxicity, MMP readout): 0.53"
"Oc1ccc(Cc2ccc(O)cc2)cc1 [BPF, Bis(4-hydroxyphenyl)methane]",2.92E-04,2.92E-04,-3.53,292 µM,6.05E-06,-4.01,97.7 µM,1.16E-05,1.61E-04,-3.78,164 µM,6.56E-04,6.90E-04,-3.18,5.26E-04,5.00E-04,-3.28,656 µM,526 µM,no effect,"logEC10 [1, 11]: no effect; IC10, linear (HEK293H (PPARγ)): 1.05E-04"
"CC(C)(c1cc(Br)c(O)c(Br)c1)c1cc(Br)c(O)c(Br)c1 [TBBPA, 3,3',5,5'-Tetrabromobisphenol A]",,,,,,,,,,,,,,,,,,,,,"logIC10 (H4IIe (AhR CALUX); rat, 24 h): -3.80; IC10, linear (HEK293T (ERα)): no cytotoxicity; logIC10 (HEK293T (ERα); human, 24 h): -4.81"
"CC1(C)[C@H](O)C(C)(C)[C@H]1O [t-TMCD, trans-2,2,4,4-Tetramethyl-1,3-cyclobutanediol]",,,,8940 µM,,,,,,,,,,,,,,,,,Toxic ratio (TR) TRAhR (H4IIe (AhR CALUX)): 0.11
"O=S(=O)(c1ccc(O)cc1)c1ccc(O)cc1 [BPS, 4,4'-Sulfonyldiphenol]",,,,,3.12E-05,-3.22,603 µM,,,,520 µM,1.39E-03,1.31E-03,-2.86,1.22E-03,1.44E-03,-2.92,1390 µM,1220 µM,1.02E-05,"logEC10 [1, 11]: no effect; IC10, linear (HEK293H (PPARγ)): 6.15E-04; IC10, linear transformed (HEK293T (ERα); Bioassay ERα, cytotoxicity, dosing range high): 1.03E-04; IC10, linear (HEK293T (ERα); Bioassay ERα, cytotoxicity, dosing range high, linear model fit): 5.20E-04; logIC10 (HEK293T (ERα); Bioassay ERα, cytotoxicity, dosing range high, log-logistic model fit): -3.33; IC10, linear transformed (HEK293T (ERα); ERα bioassay cytotoxicity, dosing range low): 5.72E-05; IC10, linear (HEK293T (ERα); ERα bioassay cytotoxicity, dosing range low, linear model): no cytotoxicity; logIC10 (HEK293T (ERα); ERα bioassay cytotoxicity, dosing range low, log-logistic model): no cytotoxicity"
